The record followed here is patent US20070105908A1, “Thiazolimine compound and oxazolimine compound” (DAINIPPON SUMITOMO PHARMA CO., LTD., priority 2003, published 2007).

In the test the target is T1, chymase derived from human skin (Homo sapiens, UniProt P23946).
T1 construct: chymase derived from human skin (Elastin Products Co.); purchased Elastin Products Co; host or cells: human skin (tissue-derived)
T1 sequence (P23946 22-247): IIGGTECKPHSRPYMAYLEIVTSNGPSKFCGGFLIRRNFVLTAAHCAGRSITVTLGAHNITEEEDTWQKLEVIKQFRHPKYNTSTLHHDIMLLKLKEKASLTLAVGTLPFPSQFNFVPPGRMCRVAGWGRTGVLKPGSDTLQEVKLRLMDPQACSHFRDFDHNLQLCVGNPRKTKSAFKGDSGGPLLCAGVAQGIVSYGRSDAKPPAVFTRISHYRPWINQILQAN
Briefly: Inhibitory effect on chymase (in vitro test). In kind it is biochemical. To be noted: 50 ng chymase, fluorescent synthetic substrate 0.1 mM, pH 8.0, 37° C. for 2 hours. As to the method:
Inhibitory Effect on Chymase (In Vitro Test)
To 100 μl of a buffer solution A (50 mM Tris-hydrochloric acid (pH=8.0), 2M NaCl) were added 50 ng of chymase derived from human skin (Elastin Products Co.), a fluorescent synthetic substrate 0.1 mM succinyl-alanylprolyl-phenylalanine-methylcoumalylamide (Peptide Laboratories Co., Ltd.) and a test substance dissolved in dimethyl sulfoxide (DMSO), and the resulting mixture was incubated at 37° C. for 2 hours. Then, the intensity of fluorescence was measured at an excitation wavelength of 355 nm and a measuring wavelength of 460 nm by the use of a fluorescence plate reader (Fluoroscan (Dainippon Pharmaceutical Co., Ltd.)). A fluorescence intensity value obtained without adding the test substance was taken as 100% and a concentration at which a fluorescence intensity value calculated from a regression line became 50% was taken as IC50.

`Cc1cn(Cc2cccc3ccccc23)/c(=N/S(=O)(=O)c2ccccc2C(=O)O)s1` [Example 1, 2-({[(2Z)-5-methyl-3-(1-naphthylmethyl)-1,3-thiazol-2(3H)-ylidene]amino}sulfonyl)benzoic acid] gave an IC50 of 2.1 nM. In other words, the single-digit nanomolar range.
